13 molecules from PubChem BioAssay (NCI) can be followed below.

Common to all, as to test: NCI-60 cell line screen, 48 h
Test [1] relates to IGROV1 ovarian.
In test [2] the test system is MDA-MB-435.
Test [3] relates to HT29 colon.
Test [4] relates to UO-31 renal.
Test [5] concerns OVCAR-3 ovarian.
Test [6] concerns HOP-92 NSCLC.
For test [7], the system named is HCT-116 colon.
Test [8] concerns RPMI-8226 leukemia.
The subject of test [9] is EKVX NSCLC.
Test [10] concerns HL-60(TB) leukemia.

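These data come from cells grown in 96-well plates and exposed to compound for 48 hours at five concentrations. TGI: concentration producing complete growth inhibition.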 Bounds are passed on as bounds.

With `CON(C)C(=O)C1CCCO1` (stereo not given), the TGI in test [1], in test [2], in [3], in test [4], in test [5] and in test [6] was more than 100 µM each time. In addition, the TGI in test [7], in test [8], in [9] and in [10] was more than 100 µM each time.
With `O=C(/C=C/c1ccc2c(c1)OCO2)Cc1nc2ccccc2[nH]c1=O`, the TGI in [1] is more than 100 µM; in [2], 46.1 µM; in test [3], more than 100 µM; in [4], 50.9 µM; in test [5], 81.5 µM; in [6], 73.3 µM. The TGI in test [7], in [8], in test [9] and in test [10] was more than 100 µM each time.
For the molecule `CCN(CC)CCO/N=C1\CC[C@H]2[C@@H]3CCc4cc(OC)ccc4[C@H]3CC[C@]12C`, the TGI amounted to 10.2 µM in test [1]; 1.48 µM in test [2]; 2.07 µM in [3]; 7.77 µM in [4]; 15.5 µM in [5]; 7.25 µM in test [6]. Also, the TGI was 2.92 µM in test [7], 4.26 µM in [8], 9.76 µM in test [9] and 3.12 µM in test [10].
Turning to `C[n+]1c(/C=C/c2ccc(O)c3ncccc23)[se]c2ccccc21`, the TGI is more than 37.8 µM in test [1]; 28.4 µM in test [2]; 20.7 µM in test [3]; 18.3 µM in test [4]; 4.5 µM in test [5]; 22.3 µM in test [6]. The TGI in test [7] was 11.4 µM; in test [8] it was 40.5 µM; in [9] it was 28 µM; in [10], 7.66 µM.
Take `CCOC(=O)C1CCC(=O)N1C(=O)c1ccccc1Cl` (stereo not given): the TGI in [1], in [2], in [3], in test [4], in test [5] and in [6] was more than 100 µM throughout. Besides, the TGI in test [7], in test [8], in test [9] and in test [10] was more than 100 µM each time.
As to `CN1CCN(C2=C(Cl)C3(OCCS3)C(F)(F)C2(F)F)CC1` (stereo not given), the TGI in test [1], in test [2], in test [3], in test [4], in test [5] and in [6] was more than 100 µM throughout. In addition, the TGI in [7], in [8], in [9] and in test [10] was more than 100 µM in each case.
With `CCOC(=O)c1ccc(Nc2nc3ccc(C(F)(F)F)cc3nc2C(=O)OCC)cc1`, the TGI in [1], in test [2], in [3], in test [4], in [5] and in [6] was more than 100 µM in each case. Also, the TGI in test [7], in [8], in test [9] and in [10] was more than 100 µM throughout.
`CN(C)CCCNC(=O)c1c(O)c2ccccc2n(C)c1=O`: the TGI in [1] is more than 100 µM; in [2], more than 100 µM; in test [3], more than 100 µM; in test [4], more than 100 µM; in test [5], more than 100 µM; in [6], 80.7 µM. In addition, the TGI in [7], in [8], in test [9] and in [10] was more than 100 µM in each case.
For `COc1ccc(C2c3cc4c(cc3OC(NCCO)C2C)OCO4)cc1` (stereo not given), the TGI in test [1] is more than 100 µM; in [2], 59.7 µM; in test [3] it was 43.5 µM; in [4], 76.8 µM; in [5], 36.4 µM; in [6], 86.1 µM. Besides, the TGI in test [7] amounted to 31 µM; in [8] it was 55.3 µM; in [9], 92.5 µM; in [10], 43.3 µM.
In the case of `CC(C)C1=C(O)C2=C(C(=O)C1=O)C1(C)CCCC(C)(C)C1C(O)C2OC=O` (stereo not given), the TGI came out at 22.2 µM in test [1]; 11.8 µM in test [2]; 23.2 µM in [3]; 18.8 µM in test [4]; 25.9 µM in test [5]; 20.1 µM in [6]. Besides, the TGI in test [7] is 20.3 µM; in [8], 6.9 µM; in [9] it was 21.7 µM; in [10] it was 18.7 µM.
For the molecule `C(=C\c1ccccc1)/COc1ccccc1C(N1CCOCC1)n1nc2ccccc2n1` (stereo not given), the TGI in test [1] came out at 41.6 µM; in test [2], 1.9 µM; in test [3], 10.7 µM; in test [4], 31.6 µM; in test [5], 7.04 µM; in test [6] it was 21.9 µM. The TGI in test [7] worked out at 22.8 µM; in test [8], 12.2 µM; in [9] it was 49.6 µM; in [10], 1.45 µM.
For the molecule `CN(C)c1cccc2c1C(=O)C=CC21c2ccc(N(C)C)c3c(N(C)C)ccc(c23)C(c2ccccc2)C1c1ccccc1` (stereo not given), the TGI was 29.3 µM in test [1]; 30.2 µM in test [2]; 44.9 µM in test [3]; 12.2 µM in [4]; 31.2 µM in test [5]; 28.6 µM in [6]. Further, the TGI came to 52.6 µM in test [7], 49.3 µM in test [8], 54.8 µM in test [9] and 22.6 µM in test [10].
As to `O=C1C2=Nc3ccccc3C(O)(C(=O)O)N2c2ccccc21` (stereo not given), the TGI in [1] is more than 100 µM; in [2] it was 5.5 µM; in [3] it was 49.2 µM; in test [4] it was more than 100 µM; in test [5], 58.5 µM; in test [6], more than 100 µM. The TGI in [7] was 59.7 µM; in [8], more than 100 µM; in test [9], more than 100 µM; in test [10] it was 77 µM.
